Results published in publication PMC4232510, “Identification of Functionally Important Residues of the Rat P2X4 Receptor by Alanine Scanning Mutagenesis of the Dorsal Fin and Left Flipper Domains” (PLoS ONE, 2014).

What was measured:
rP2X4R N293A mutant = target: T1, rP2X4R N293A mutant (Rattus norvegicus, UniProt P51577, N293A); assay: whole-cell patch clamp, HEK293T cells expressing mutant; type: cell-based
T1 construct: expressed in transfected cells; host or cells: HEK293T

rP2X4R R203A mutant = target: T2, rP2X4R R203A mutant (Rattus norvegicus, UniProt P51577, R203A); assay: as above; type: cell-based
T2 construct: expressed in transfected cells; host or cells: HEK293T

P2X2R N202A = tested on: P2X2R N202A; design: method as in PMID 10940304; key: n.f.: non-functional mutants; ↑: mutant with significant increased EC50 in comparison to WT (values represent fold increase); ≈: close to WT receptor; D: affected time-constant of the desensitizing current response; settings: cited from earlier work
P2X3R T196A = tested on: P2X3R T196A; design: method as in PMID 16226373; key: n.f.: non-functional mutants; ↑: mutant with significant increased EC50 in comparison to WT (values represent fold increase); ≈: close to WT receptor; D: affected time-constant of the desensitizing current response; settings: cited from earlier work
P2X3R E197A = tested on: P2X3R E197A; design: method as in PMID 15475563; key: n.f.: non-functional mutants; ↑: mutant with significant increased EC50 in comparison to WT (values represent fold increase); ≈: close to WT receptor; D: affected time-constant of the desensitizing current response; settings: cited from earlier work
P2X3R M200C = tested on: P2X3R M200C; design: method as in PMID 24989924; settings: cited from earlier work
P2X2R D277A = tested on: P2X2R D277A; design: method as in PMID 18194442; key: n.f.: non-functional mutants; ↑: mutant with significant increased EC50 in comparison to WT (values represent fold increase); ≈: close to WT receptor; D: affected time-constant of the desensitizing current response; settings: cited from earlier work
P2X3R D266A = tested on: P2X3R D266A; design: method as in PMID 15475563; key: n.f.: non-functional mutants; ↑: mutant with significant increased EC50 in comparison to WT (values represent fold increase); ≈: close to WT receptor; D: affected time-constant of the desensitizing current response; settings: cited from earlier work
P2X4R N287A = tested on: P2X4R N287A; design: method as in PMID 17663752, PMID 15632318; key: n.f.: non-functional mutants; ↑: mutant with significant increased EC50 in comparison to WT (values represent fold increase); ≈: close to WT receptor; D: affected time-constant of the desensitizing current response; settings: cited from earlier work
P2X1R G288C = tested on: P2X1R G288C; design: method as in PMID 17428985; settings: cited from earlier work
[1] = decay after removal of 1 or 3 µM ATP, 3 µM IVM

T1 sequence (P51577 whole entry N293A): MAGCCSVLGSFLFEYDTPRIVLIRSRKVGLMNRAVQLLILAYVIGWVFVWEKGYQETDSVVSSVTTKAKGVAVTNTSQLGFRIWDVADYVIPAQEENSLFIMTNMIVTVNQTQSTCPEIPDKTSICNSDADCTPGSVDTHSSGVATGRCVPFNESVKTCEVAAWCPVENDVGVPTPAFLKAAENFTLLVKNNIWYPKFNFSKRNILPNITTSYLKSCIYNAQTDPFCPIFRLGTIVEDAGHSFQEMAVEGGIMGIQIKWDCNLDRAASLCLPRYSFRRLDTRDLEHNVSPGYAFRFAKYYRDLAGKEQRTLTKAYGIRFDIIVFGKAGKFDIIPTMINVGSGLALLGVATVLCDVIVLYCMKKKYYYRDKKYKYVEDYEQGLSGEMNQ
T2 sequence (P51577 whole entry R203A): as the sequence (P51577 whole entry N293A) above, with R203A, A293N counted along it

With `Nc1ncnc2c1ncn2[C@@H]1O[C@H](COP(=O)(O)OP(=O)(O)OP(=O)(O)O)[C@@H](O)[C@H]1O` [ATP] the “Imax+IVM” value (rP2X4R N293A mutant; ATP after 3 µM IVM 4-6 min) was 2.0 ±0.5 nA, the “τoff +IVM” value (rP2X4R N293A mutant; [1]) was 2.8 ± 0.2 s and the “Imax+IVM” value (rP2X4R R203A mutant; ATP after 3 µM IVM 4-6 min) was 2.9 ± 0.6 nA. For the same compound, the “τoff +IVM” value (rP2X4R R203A mutant; [1]) was 4.6 ± 0.3 s, the “change in EC50 for ATP” value (P2X2R N202A) was “N202A: n.f.[6]” and the “change in EC50 for ATP” value (P2X3R T196A) was “T196A: ≈[54]”. The change in desensitization (P2X3R E197A) was “E197A: D[53]”, the “fold increase of EC50 for ATP in comparison to WT” value (P2X3R M200C) was “M200C:↑8x[58]” and the “change in EC50 for ATP” value (P2X2R D277A) was “D277A:: ≈[56]”. For the same compound, the change in desensitization (P2X3R D266A) was “D266A: D[53]”, the “change in EC50 for ATP” value (P2X4R N287A) was “N287A: ≈[10], [52]” and the “fold increase of EC50 for ATP in comparison to WT” value (P2X1R G288C) was 10 x.
